Data: article PMC6218659, “Structures of DPAGT1 Explain Glycosylation Disease Mechanisms and Advance TB Antibiotic Design” (Cell, 2018)
In brackets after ≈: the same amount, converted by molar mass. Read-outs that look alike come from different tables or passages of the source.

Key:
S. aureus ATCC29219 = assay: Micro-broth dilution and drop plate antimicrobial susceptibility test; format: cell-based; details: Staphylococcus aureus
Method: (§1) In a sterile 96-well plate, serial dilutions were made with the test substance to final volume of 50 μl. Inoculum was then prepared in Mueller-Hinton broth to 0.5 McFarland and diluted before adding 50 μl to the well to make ∼1x10^5 CFU/ml. The culture plate was incubated at 35 °C for 20-24 hrs. A positive growth control and sterility wells were also prepared along with the culture wells. Absorbance at OD600 was taken using BMG Labtech SPECTROstar Omega spectrophotometer. MIC is determined by the lowest concentration without growth. IC50 is determined from plotting a dose-response curve, see Data Analysis below. To determine the MBC, using a multi-channel pipette, 1 μl of culture broth was taken from the same 96-well microdilution growth plate and carefully inoculated on surface of MH agar plate. The plate is then incubated for additional 20 hrs. at 35 °C. The MBC value is the lowest concentration without observed growth on the agar.

E. coli ATCC25922 = assay: as above; format: cell-based; details: Escherichia coli
Method: as §1

P. aeruginosa ATCC27853 = assay: as above; format: cell-based; details: Pseudomonas aeruginosa
Method: as §1

B. cereus ATCC11778 = assay: as above; format: cell-based, Bacillus cereus; details: for Relative Therapeutic Index (RTI), B. cereus NRRL 11778: minimal lethal dose / MIC, 800 μg mL-1 used for >400
Method: as §1

B. subtilis EC1524 = assay: as above; format: cell-based, Bacillus subtilis; details: for IC50 / MBC / MIC: Bacillus subtilis; for Relative Therapeutic Index (RTI), B. subtilis EC1524: minimal lethal dose / MIC, 800 μg mL-1 used for >400
Method: as §1

HEK293 cells = assay: Cell proliferation assay (MTS); format: cell-based, human; details: for LD50 values, HEK293: MTS cell proliferation assay, 24 hrs, highest concentration 400 µg mL-1; for Minimal Lethal Dose, HEK 293: serial 2-fold dilutions (Table S6)
Method: (§2) In sterile 96-well plate, each well was seeded with ∼1x10^5 cells. The cells are then grown confluent overnight in 100 μl DMEM with 10% FBS. The medium is replenished with DMEM with 2% FBS and added vehicle control or test substance the next day. For test substance in methanol, stock was added to 25 μl of DMEM with 2% FBS or PBS and placed in the laminar flow hood to let the methanol evaporate (about 1-3 hrs). Once the methanol has evaporated, DMEM with 2% FBS was added to final volume of 100 μl of desired test concentration. […] Cells are grown for additional 24 hrs. The cell viability was determined by using Promega CellTiter 96^© AQueous One Solution Cell Proliferation Assay (3-(4,5-dimethylthiazol-2-yl)-5-(3-carboxymethoxyphenyl)-2-(4-sulfophenyl)-2H-tetrazolium, inner salt; MTS) System following the manufacture protocol.

HepG2 cells = assay: Cell proliferation assay (MTS); format: cell-based, human; details: for LD50 values, HepG2: MTS cell proliferation assay, 24 hrs, highest concentration 400 µg mL-1; for Minimal Lethal Dose, HepG2: serial 2-fold dilutions (Table S6)
Method: as §2

Raji cells = assay: Cell proliferation assay (MTS); format: cell-based, human; details: 24 hrs
Method: as §2

Mtb H37Rv ATCC27294 = assay: Minimum inhibitory concentrations testing against Mtb; format: cell-based, Mycobacterium tuberculosis; details: for MIC: Mycobacterium tuberculosis, 168 h; for Relative Therapeutic Index (RTI), Mtb H37RV a / Relative Therapeutic Index (RTI), Mtb H37RV b: minimal lethal dose / MIC, 800 μg mL-1 used for >400; for Relative Therapeutic Index (RTI), Mtb H37RV a: 7H9/ADC/Tw; for Relative Therapeutic Index (RTI), Mtb H37RV b: GAST/Fe
[1] = tested on: Mtb-infected J774A.1 macrophages; assay: Efficacy against Mtb growing in infected macrophages; details: J774A.1 macrophages treated 3 or 7 days
[2] = Bacillus cereus, ATCC 11778 / NRRL11778, read-out: Minimal Inhibitory Concentration, B. cereus NRRL 11778
[3] = EC1524, read-out: Minimal Inhibitory Concentration, B. subtilis EC1524
[4] = read-out: 1-week MIC in 7H9/ADC/Tw
[5] = read-out: 1-week MIC in GAST/Fe
[6] = read-out: Minimal Inhibitory Concentration, Mtb H37RV a
[7] = read-out: Minimal Inhibitory Concentration, Mtb H37RV b

Row | SMILES | IC50 (S. aureus ATCC29219) | MBC (S. aureus ATCC29219) | MIC (S. aureus ATCC29219) | IC50 (E. coli ATCC25922) | MBC (E. coli ATCC25922) | MIC (E. coli ATCC25922) | IC50 (P. aeruginosa ATCC27853) | MBC (P. aeruginosa ATCC27853) | MIC (P. aeruginosa ATCC27853) | IC50 (B. cereus ATCC11778; Bacillus cereus, ATCC11778) | MBC (B. cereus ATCC11778; Bacillus cereus, ATCC11778) | MIC (B. cereus ATCC11778; Bacillus cereus, ATCC11778) | MIC (B. cereus ATCC11778; [2]) | Relative Therapeutic Index (RTI), B. cereus NRRL 11778 (B. cereus ATCC11778) | IC50 (B. subtilis EC1524; EC1524) | MBC (B. subtilis EC1524; EC1524) | MIC (B. subtilis EC1524; EC1524) | MIC (B. subtilis EC1524; [3]) | Relative Therapeutic Index (RTI), B. subtilis EC1524 (B. subtilis EC1524) | LD50 values, HEK293 (HEK293 cells) | further results
1 | CCCCCCC(=O)N[C@H]1[C@H](O[C@H]2O[C@H](CO)[C@@H](O)[C@H](O)[C@H]2NC(=O)CCCCCC)O[C@H](C[C@@H](O)[C@H]2O[C@@H](n3ccc(=O)[nH]c3=O)[C@H](O)[C@@H]2O)[C@H](O)[C@@H]1O [TUN-7,7, Di-N-heptanoyl tunicamycin] | 80.5 µg/mL (≈ 102 µM) | > 400 µg/mL | 170 ± 60 µg/mL (≈ 215 µM) | 131 µg/mL (≈ 166 µM) | > 400 µg/mL | 330 ± 120 µg/mL (≈ 417 µM) | 62.4 µg/mL (≈ 79 µM) | > 400 µg/mL | 83 ± 29 µg/mL (≈ 105 µM) | 13.3 µg/mL (≈ 16.9 µM) | > 200 µg/mL | 83 ± 29 µg/mL (≈ 105 µM) | 100 µg/mL (≈ 126 µM) | 8 | 3.12 ± 1.04 µg/mL (≈ 3.95 µM) | > 50 µg/mL | 5.2 ± 1.8 µg/mL (≈ 6.58 µM) | 6.25 µg/mL (≈ 7.9 µM) | 128 | N/A (N/A = not available. No or low cytotoxicity observed at highest, saturating concentration tested (400 µg mL-1)) | Minimal Lethal Dose, HEK 293 (HEK293 cells): > 400 µg/mL; LD50 values, HepG2 (HepG2 cells): N/A (N/A = not available. No or low cytotoxicity observed at highest, saturating concentration tested (400 µg mL-1)); Minimal Lethal Dose, HepG2 (HepG2 cells): > 400 µg/mL; LD50 values, Raji (Raji cells): 431.10 ± 241.81 µg/mL; MIC (Mtb H37Rv ATCC27294; [4]): 5 ± 3.5 µg/mL (≈ 6.32 µM); MIC (Mtb H37Rv ATCC27294; [5]): 1.6 ± 1.8 µg/mL (≈ 2.02 µM); MIC (Mtb H37Rv ATCC27294; [6]): 5 µg/mL (≈ 6.32 µM); MIC (Mtb H37Rv ATCC27294; [7]): 1.6 µg/mL (≈ 2.02 µM); Relative Therapeutic Index (RTI), Mtb H37RV a (Mtb H37Rv ATCC27294): 160; Relative Therapeutic Index (RTI), Mtb H37RV b (Mtb H37Rv ATCC27294): 500
2 | CCCCCCCCCC(=O)N[C@H]1[C@H](O[C@H]2O[C@H](CO)[C@@H](O)[C@H](O)[C@H]2NC(=O)CCCCCCCCC)O[C@H](C[C@@H](O)[C@H]2O[C@@H](n3ccc(=O)[nH]c3=O)[C@H](O)[C@@H]2O)[C@H](O)[C@@H]1O [TUN-10,10, Di-N-decanoyl-tunicamycin] | 49.3 µg/mL (≈ 56.3 µM) | 400 µg/mL (≈ 457 µM) | 83 ± 29 µg/mL (≈ 94.9 µM) | 91.6 µg/mL (≈ 105 µM) | 400 µg/mL (≈ 457 µM) | 330 ± 120 µg/mL (≈ 377 µM) | 53.5 µg/mL (≈ 61.1 µM) | 400 µg/mL (≈ 457 µM) | 83 ± 29 µg/mL (≈ 94.9 µM) | 0.046 µg/mL (≈ 0.0526 µM) | 12.5 µg/mL (≈ 14.3 µM) | 0.33 ± 0.11 µg/mL (≈ 0.377 µM) | 0.39 µg/mL (≈ 0.446 µM) | 2050 | 0.12 ± 0.04 µg/mL (≈ 0.137 µM) | > 0.39 µg/mL | 0.33 ± 0.11 µg/mL (≈ 0.377 µM) | 0.39 µg/mL (≈ 0.446 µM) | 2050 | N/A (N/A = not available. No or low cytotoxicity observed at highest, saturating concentration tested (400 µg mL-1)) | MIC (B. cereus ATCC11778; B. cereus, micro-broth dilution, mean ± SEM (n=3)): 0.33 ± 0.11 µg/mL (≈ 0.377 µM); reduction of intracellular bacterial burdens ([1]; 1 × MIC): 1 logs; reduction of intracellular bacterial burdens ([1]; 10 × MIC): 2 logs; Minimal Lethal Dose, HEK 293 (HEK293 cells): > 400 µg/mL; LD50 values, HepG2 (HepG2 cells): N/A (N/A = not available. No or low cytotoxicity observed at highest, saturating concentration tested (400 µg mL-1)); Minimal Lethal Dose, HepG2 (HepG2 cells): > 400 µg/mL; LD50 values, Raji (Raji cells): 196.17 ± 47.61 µg/mL; MIC (Mtb H37Rv ATCC27294; [4]): 1.2 ± 0.3 µg/mL (≈ 1.37 µM); MIC (Mtb H37Rv ATCC27294; [5]): 0.1 ± 0.1 µg/mL (≈ 0.114 µM); MIC (Mtb H37Rv ATCC27294; [6]): 1.2 µg/mL (≈ 1.37 µM); MIC (Mtb H37Rv ATCC27294; [7]): 0.1 µg/mL (≈ 0.114 µM); Relative Therapeutic Index (RTI), Mtb H37RV a (Mtb H37Rv ATCC27294): 667; Relative Therapeutic Index (RTI), Mtb H37RV b (Mtb H37Rv ATCC27294): 8000
